Test results from ChEMBL document CHEMBL5634115, “Exploring novel anticancer pyrazole benzenesulfonamides featuring tail approach strategy as carbonic anhydrase inhibitors” (Eur J Med Chem, 2023).

Assays:
[1] = biological target: Carbonic anhydrase 9 (Homo sapiens, UniProt Q16790)
Description: Binding affinity to human CA9 assessed as inhibition constant

[2] = biological target: T1, Carbonic anhydrase 12 (Homo sapiens, UniProt O43570)
Description: Binding affinity to human CA12 assessed as inhibition constant

[3] = biological target: T1, Carbonic anhydrase 12; remark: listed apart in the source
Description: Inhibition of human carbonic anhydrase 12 preincubated for 15 mins followed by substrate addition and measured after 30 mins by spectrophotometric method

T1 sequence (O43570 whole entry): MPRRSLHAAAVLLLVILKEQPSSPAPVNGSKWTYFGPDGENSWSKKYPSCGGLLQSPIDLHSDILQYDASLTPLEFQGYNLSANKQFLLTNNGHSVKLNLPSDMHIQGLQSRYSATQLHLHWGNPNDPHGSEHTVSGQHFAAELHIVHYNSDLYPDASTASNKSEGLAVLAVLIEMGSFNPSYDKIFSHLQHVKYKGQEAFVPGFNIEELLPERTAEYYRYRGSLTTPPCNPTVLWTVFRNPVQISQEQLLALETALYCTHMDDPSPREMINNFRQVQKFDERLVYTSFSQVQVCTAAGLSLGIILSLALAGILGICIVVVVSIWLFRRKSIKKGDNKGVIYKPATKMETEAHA

| Structure (SMILES) | Ki [1] [nM] | Ki [2] [nM] | IC50 [3] [nM] |
| --- | --- | --- | --- |
| NS(=O)(=O)c1ccc(C(=O)N/N=C/c2ccccc2O)cc1 | 18.9 | 32.7 |  |
| CCOC(=O)c1cc(-c2ccc([N+](=O)[O-])cc2)n(-c2ccc(S(N)(=O)=O)cc2)n1 | 20.5 |  |  |
| Cc1ccc(-c2nn(-c3ccc(S(N)(=O)=O)cc3)cc2/C=N/Nc2ccc(S(N)(=O)=O)cc2)cc1 |  |  | 144 |
| CCOC(=O)c1cc(-c2ccccc2)n(-c2ccc(S(N)(=O)=O)cc2)n1 | 225 |  |  |

Continued by falling Ki [1], values first:

| Ki [1] [nM] | Ki [2] [nM] | IC50 [3] [nM] | Structure (SMILES) |
| --- | --- | --- | --- |
| 176 |  |  | CCOC(=O)c1cc(-c2ccc(C)cc2)n(-c2ccc(S(N)(=O)=O)cc2)n1 |
| 7.79 | 7.78 |  | CCn1c(-c2cc(C(=O)O)[nH]n2)cc2ccccc21 |
